Assay results published in article PMC9515952, “Tentative exploration of pharmacodynamic substances: Pharmacological effects, chemical compositions, and multi-components pharmacokinetic characteristics of ESZWD in CHF-HKYd rats” (Frontiers in Cardiovascular Medicine, 2022).
Read-outs that look alike come from different tables or passages of the source. Blank lines part the entries; values can stand above or below the molecule they belong to.

Assays:
[1] = Pharmacokinetics of four components of ESZWD in CHF-HKYd rat serum by UPLC-MS/MS; assay type: in vivo; set-up: AUC(0-t) / AUC(0−t) / AUC(0-inf) / AUC(0−∞): concentration or dose not given beside the values; conditions: CHF-HKYd rat serum after oral administration of ESZWD, mean ± SD, n = 6
Experimental: All rats were randomly divided into control group, model group, ESZWD low-dose (3.96 g/kg), medium-dose (7.92 g/kg), high-dose (15.84 g/kg) groups, and positive control group (benazepril, 0.5 mg/kg), with six rats in each group. The CHF-HKYd was established after 1 week of feeding. ESZWD and benazepril were administered by gavage separately for 4 weeks after successful modeling, except for the control group. Blood was collected for 5, 10, 20, 30, 45 min, 1, 2, 4, 6, 8, 12, and 24 h, standing for 2 h and centrifuged at 4°C, 3,500 rpm for 10 min, the supernatant was retained. The state of rats was observed and the urine volume at 24 h was measured. The structure and function of rat heart were evaluated by doppler ultrasonography. Serum biomarkers including myocardial injury indicators NT-proBNP, angiotensinII (AngII), aldosterone (ALD), reactive oxygen species (ROS), superoxide dismutase (SOD), malondialdehyde (MDA), and tumor necrosis factor α (TNF-α) and interleukin 6 (IL-6) were detected by ELISA.
Chromatographic analysis was performed using ACQUITY UPLC BEH C18 column (2.1 × 50 mm, […]), the mobile phase was acetonitrile (A) 0.1% formic acid water (B), the flow rate was set as 0.2 mL·min^−1, the column temperature was 35°C, the injection volume was 2 μL, and the gradient conditions were as follows: 0–8 min: 6–11%A, 8–23 min: 11–19%A, 23–45 min: 19–38%A, 45–55 min: 38–47%A, 55–55.1 min: 47–52%A, 55.1–65 min: 52–90%A, 65–66 min: 90–6%A of UPLC-Q-TOF/MS analysis and 0–3 min: 8–10%A, 3–3.5 min: 10–70% A, 3.5–5: 70–80%A, 5–5.1 min: 80–8% A, 5.1–6 min: 8% A of UPLC-MS/MS.
Mass spectrometric detection of UPLC-MS/MS analysis was carried out on electrospray ionization (ESI) ion source, multiple reaction monitoring (MRM) mode, ion spray voltage of 5,500 V, the curtain gas and collision gas were 40 and 9 kPa, respectively, declustering potential (DP) and collision voltage (CE) are shown in Table 1.

[2] = rat; for Stability, Room temperature, Mean ± SD: 4 h; for Stability, Automatic sampler, Mean ± SD: 8 h; for Stability, Long-term freeze, Mean ± SD: 7 d
Experimental: (§1) The stability of all probe drugs was evaluated by LQC and HQC samples under different experimental conditions, including short-term stability [4 h at room temperature (25°C), 8 h in the automatic sampler, and three freeze and thaw cycles, respectively] and long-term stability (7 d at −80°C).

[3] = Stability of four compounds in rat serum (UPLC-MS/MS method validation); conditions: n = 5; for Stability, Room temperature, Mean ± SD: 4 h at room temperature (25°C); for Stability, Automatic sampler, Mean ± SD: 8 h in the automatic sampler; for Stability, Long-term freeze, Mean ± SD: 7 d at −80°C; for Stability, Multigelation, Mean ± SD: three freeze and thaw cycles
Experimental: as §1

[4] = added 20 ng/mL (salsolinol) or 1 ng/mL (others)
[5] = added 100 ng/mL (salsolinol) or 10 ng/mL (others)
[6] = added 750 ng/mL (salsolinol) or 150 ng/mL (others)

V/F [1]: 41.20 ± 0.83 L/kg
AUC(0-inf) ([1]; Sprague-Dawley (SD)): 2260 ± 179 ng·h/mL
AUC(0-t) ([1]; Sprague-Dawley (SD)): 2240 ± 178 ng·h/mL
half-life ([1]; Sprague-Dawley (SD)): 3.22 ± 0.34 h
CL/F ([1]; Sprague-Dawley (SD), read-out: CL/F (converted)): 148 mL/min/kg
Cmax ([1]; Sprague-Dawley (SD), read-out: Cmax): 198 ± 27.7 ng/mL
Tmax ([1]; Sprague-Dawley (SD), read-out: Tmax): 6 ± 2.54 h
half-life ([1]; Sprague-Dawley): ~3 h
Stability, Multigelation, Mean ± SD ([2]; 1 ng/mL): 1.012 ± 0.07 ng/mL
Stability, Multigelation, Mean ± SD ([2]; 10 ng/mL): 10.41 ± 0.73 ng/mL
Stability, Multigelation, Mean ± SD ([2]; 150 ng/mL): 162.2 ± 9.25 ng/mL
Stability, Room temperature, Mean ± SD ([2]; 1 ng/mL): 1.046 ± 0.06 ng/mL
Stability, Room temperature, Mean ± SD ([2]; 10 ng/mL): 10.18 ± 0.72 ng/mL
Stability, Room temperature, Mean ± SD ([2]; 150 ng/mL): 160.7 ± 5.68 ng/mL
Stability, Automatic sampler, Mean ± SD ([2]; 1 ng/mL): 1.053 ± 0.02 ng/mL
Stability, Automatic sampler, Mean ± SD ([2]; 10 ng/mL): 10.51 ± 0.98 ng/mL
Stability, Automatic sampler, Mean ± SD ([2]; 150 ng/mL): 160.2 ± 6.15 ng/mL
Stability, Long-term freeze, Mean ± SD ([2]; 1 ng/mL): 1.010 ± 0.08 ng/mL
Stability, Long-term freeze, Mean ± SD ([2]; 10 ng/mL): 10.19 ± 0.97 ng/mL
Stability, Long-term freeze, Mean ± SD ([2]; 150 ng/mL): 149.6 ± 11.70 ng/mL
Molecule: C[C@@]12C[C@@]3(O)O[C@@H](O1)[C@]1(COC(=O)c4ccccc4)[C@H]3C[C@@]12O[C@@H]1O[C@H](CO)[C@@H](O)[C@H](O)[C@H]1O [Paeoniflorin]

Molecule: C[C@@H]1NCCc2cc(O)c(O)cc21 [Salsolinol]
AUC(0−t) [1]: 2,327 ± 261.0 ng/mL·h
AUC(0−∞) [1]: 2,344 ± 265.7 ng/mL·h
CL/F [1]: 143.8 ± 16 mL/min/kg
Cmax [1]: 314.2 ± 36.84 ng/mL
T1/2 [1]: 3.271 ± 0.58 h
Tmax [1]: 1.25 ± 0.59 h
V/F [1]: 40.68 ± 9.03 L/kg
T1/2 ([1]; listed as salsolinol): about 3 h
Stability, Room temperature, Mean ± SD [3, 4]: 21.07 ± 0.74 ng/mL
Stability, Room temperature, Mean ± SD [3, 5]: 112.2 ± 4.13 ng/mL
Stability, Room temperature, Mean ± SD [3, 6]: 700.5 ± 49.6 ng/mL
Stability, Automatic sampler, Mean ± SD [3, 4]: 20.68 ± 0.61 ng/mL
Stability, Automatic sampler, Mean ± SD [3, 5]: 111.3 ± 2.63 ng/mL
Stability, Automatic sampler, Mean ± SD [3, 6]: 716.3 ± 22.1 ng/mL
Stability, Long-term freeze, Mean ± SD [3, 4]: 20.9 ± 1.2 ng/mL
Stability, Long-term freeze, Mean ± SD [3, 5]: 103.9 ± 6.16 ng/mL
Stability, Long-term freeze, Mean ± SD [3, 6]: 685.1 ± 43.66 ng/mL
Stability, Multigelation, Mean ± SD [3, 4]: 21.15 ± 0.54 ng/mL
Stability, Multigelation, Mean ± SD [3, 5]: 110.7 ± 1.34 ng/mL
Stability, Multigelation, Mean ± SD [3, 6]: 727.6 ± 68.05 ng/mL

AUC(0−t) [1]: 1,098 ± 69.72 ng/mL·h
AUC(0−∞) [1]: 1,125 ± 84.73 ng/mL·h
CL/F [1]: 297.8 ± 23 mL/min/kg
Cmax [1]: 178.9 ± 16.24 ng/mL
T1/2 [1]: 4.25 ± 0.82 h
Tmax [1]: 1.00 ± 0.00 h
V/F [1]: 108.7 ± 15.80 L/kg
Molecule: Miltrione
